Experimental data: PMC8231556, “Inhibiting Endothelial Cell Function in Normal and Tumor Angiogenesis Using BMP Type I Receptor Macrocyclic Kinase Inhibitors” (Cancers, 2021)

Tested on: HUVECs
Experiment: Cord formation assay, HUVEC-eGFP co-cultured with human dermal fibroblasts
Type: cell-based
Conditions: VEGF 15 ng/mL, 6 days; 0.5 µM (Sunitinib 1 μM)
Protocol: The cord formation assay was performed according to the IncuCyte Angiogenesis PrimeKit Assay protocol (Cell Player Angiogenesis PrimeKit, Essen BioScience). In brief, GFP labeled HUVEC cells and human dermal fibroblasts were mixed in a 1:20 ratio and seeded per well in a 96-well plate (3150 cells in total). Thereafter, the cells were exposed to VEGF alone or in combination with the compounds (at indicated concentrations) in a complete assay medium. Pictures were captured every 6 h for up to 9 days To monitor the cord formation. The medium was refreshed every 2 or 3 days. Cords formation was visualized by the GFP fluorescence, and cord length was quantified with the instrument’s software. All the experiments were repeated at least three times, and representative experiments are shown.

CCN(CC)CCNC(=O)c1c(C)[nH]c(/C=C2\C(=O)Nc3ccc(F)cc32)c1C [Sunitinib, reference compound]
effect on VEGF-induced EC cord formation: strongly suppressed
